From patent US7592359B2, “Substituted azabicyclo hexane derivatives as muscarinic receptor antagonists” (Ranbaxy Laboratories Limited, priority 2003, dated 2009)

What was measured:
[1] = target: T1, M2 muscarinic receptor (Rattus norvegicus, UniProt P10980); assay: Radioligand binding assay, [3H]-N-methylscopolamine, rat heart membranes; conditions: [3H]-NMS binding, read-out: Receptor Binding Assay pKi M2 (converted)
T1 construct: Submandibular glands and heart were isolated and placed in ice cold homogenising buffer; from tissue; host or cells: rat heart membrane homogenate
T1 sequence (P10980 1-466): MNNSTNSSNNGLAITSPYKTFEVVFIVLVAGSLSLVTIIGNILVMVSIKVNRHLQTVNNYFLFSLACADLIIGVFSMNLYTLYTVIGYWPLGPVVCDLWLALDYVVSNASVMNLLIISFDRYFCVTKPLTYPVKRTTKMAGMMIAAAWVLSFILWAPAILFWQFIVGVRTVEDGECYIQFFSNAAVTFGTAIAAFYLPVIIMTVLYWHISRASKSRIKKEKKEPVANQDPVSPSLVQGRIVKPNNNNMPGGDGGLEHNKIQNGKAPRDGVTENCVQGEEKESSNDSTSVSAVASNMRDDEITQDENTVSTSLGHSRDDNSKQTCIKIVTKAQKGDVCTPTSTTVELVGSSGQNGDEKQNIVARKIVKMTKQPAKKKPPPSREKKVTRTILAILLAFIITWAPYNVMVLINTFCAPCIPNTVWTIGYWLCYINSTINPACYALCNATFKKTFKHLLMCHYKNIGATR
Procedure: (§1) Membrane preparation: Submandibular glands and heart were isolated and placed in ice cold homogenising buffer (HEPES 20 mM, 10 mM EDTA, pH 7.4) immediately after sacrifice. The tissues were homogenised in 10 volumes of homogenising buffer and the homogenate was filtered through two layers of wet gauze and filtrate was centrifuged at 500 g for 10 min. The supernatant was subsequently centrifuged at 40,000 g for 20 min. The pellet thus obtained was resuspended in same volume of assay buffer (HEPES 20 mM, EDTA 5 mM, pH 7.4) and were stored at −70° C. until the time of assay.
(§2) Ligand binding assay The compounds were dissolved and diluted in DMSO. The membrane homogenates (150-250 μg protein) were incubated in 250 μl of assay buffer (HEPES 20 mM, pH 7.4) at 24-25° C. for 3 hours. Non-specific binding was determined in the presence of 1 μM atropine. The incubation was terminated by vacuum filtration over GF/B fiber filters (Wallac). The filters were then washed with ice cold 50 mM Tris HCl buffer (pH 7.4). The filter mats were dried and bound radioactivity retained on filters was counted. The IC50 & Kd were estimated by using the non-linear curve fitting program using G Pad Prism software.

[2] = target: T2, M3 muscarinic receptor (Rattus norvegicus, UniProt P08483); assay: Radioligand binding assay, [3H]-N-methylscopolamine, rat submandibular gland membranes; conditions: [3H]-NMS binding, read-out: Receptor Binding Assay pKi M3 (converted)
T2 construct: Submandibular glands and heart were isolated and placed in ice cold homogenising buffer; from tissue; host or cells: rat submandibular gland membrane homogenate
Procedure: as §1, §2

T2 sequence (P08483 whole entry): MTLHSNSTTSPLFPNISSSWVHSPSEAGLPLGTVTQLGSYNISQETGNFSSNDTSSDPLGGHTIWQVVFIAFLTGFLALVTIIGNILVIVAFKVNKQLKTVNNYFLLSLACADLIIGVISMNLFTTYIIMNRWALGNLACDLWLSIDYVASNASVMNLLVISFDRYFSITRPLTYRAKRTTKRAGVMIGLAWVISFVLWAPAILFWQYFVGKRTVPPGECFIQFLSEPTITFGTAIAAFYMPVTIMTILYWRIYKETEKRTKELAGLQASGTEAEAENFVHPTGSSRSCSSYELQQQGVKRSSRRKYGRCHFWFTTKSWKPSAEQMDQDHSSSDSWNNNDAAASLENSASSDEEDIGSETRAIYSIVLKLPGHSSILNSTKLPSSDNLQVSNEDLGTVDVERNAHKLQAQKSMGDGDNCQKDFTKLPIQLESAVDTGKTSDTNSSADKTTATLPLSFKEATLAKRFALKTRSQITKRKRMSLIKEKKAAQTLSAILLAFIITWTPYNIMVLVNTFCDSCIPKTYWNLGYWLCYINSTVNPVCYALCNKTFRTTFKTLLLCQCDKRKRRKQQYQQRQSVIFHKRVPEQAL

Ki [1]: 15.8 µM
Ki [2]: 7.94 µM
Compound: O=C(NC12CC1CN(Cc1ccccc1)C2)C(CO)c1ccccc1 (stereo not drawn) [Compound No. 4, (1α,5α)-N-[3-benzyl-3-azabicyclo[3.1.0]hex-1-yl]-2-hydroxymethyl-2-phenylacetamide]
